One experiment concerns Olfr120. As to the kind of experiment: Cell-based OR activation assay (cAMP accumulation). Set-up: species or system mouse. Particulars: FIG. 6; OR-dependent accumulation of cAMP.
The next experiment has as its system Olfr398. As to the kind of experiment: Cell-based OR activation assay (cAMP accumulation). Set-up: species or system mouse. The conditions noted are these: FIG. 6; OR-dependent accumulation of cAMP. (In general: Cyclic AMP is a second messenger, typically raised through Gs and lowered through Gi signalling.)
The next experiment has as its system Olfr93. As to the kind of experiment: Cell-based OR activation assay (cAMP accumulation). The conditions noted are these: FIG. 6; OR-dependent accumulation of cAMP. Set-up: species or system mouse.
The next experiment relates to Olfr1364. As to the kind of experiment: Cell-based OR activation assay (cAMP accumulation). Set-up: species or system mouse. The conditions noted are these: FIG. 6; OR-dependent accumulation of cAMP.
A further experiment addresses OR11A1 (Homo sapiens, UniProt Q9GZK7). As to the kind of experiment: Cell-based OR activation assay (cAMP accumulation). Set-up: expressed in transfected cells; host or cells: HEK293T expressing human Golf. Particulars: FIG. 5; OR-dependent accumulation of cAMP.
A further experiment has as its system Olfr96. As to the kind of experiment: Cell-based OR activation assay (cAMP accumulation). Set-up: species or system mouse. Particulars: FIG. 5; OR-dependent accumulation of cAMP.
The test system of the next experiment is Olfr1322. As to the kind of experiment: Cell-based OR activation assay (cAMP accumulation). Set-up: species or system mouse. The conditions noted are these: FIG. 5; OR-dependent accumulation of cAMP.
Another experiment concerns Olfr339. As to the kind of experiment: Cell-based OR activation assay (cAMP accumulation). The conditions noted are these: FIG. 5; OR-dependent accumulation of cAMP. Set-up: species or system mouse.
Another experiment deals with Olfr1487. As to the kind of experiment: Cell-based OR activation assay (cAMP accumulation). Set-up: species or system mouse. The conditions noted are these: FIG. 5; OR-dependent accumulation of cAMP.
In experiment [1] the test system is T1, OR11A1 or OR2M3 olfactory receptor.
T1 construct: fused on or other part: Possibly N-terminal FLAG, Rho and/or Lucy tags
As to the kind of experiment: Geonol olfactory receptor antagonist cell-based inhibitory dose-response assay. Set-up: species or system human. Particulars: Table 2; geonol induced receptor activity, geonol at EC50.

Another experiment relates to human sensory panel. As to the kind of experiment: Sensory evaluation of geonol earthy/moss odor in binary mixtures with antagonists. It counts as in vivo. Particulars: percentage of geonol malodor (earthy/moss odor) remaining in binary iso-intense mixture vs REF; * = statistically different from geonol alone. The text has this:
Sensory Evaluation: Five 16 oz glass jars containing either REF (geonol only), geonol only control, antagonist only, mixture of geonol and isointense antagonist, or mixture of geonol and low intensity antagonist were presented to the panelists (last four samples were randomized across panelists). The panelists were asked to familiarize themselves with the earthy/moss odor quality from the REF jar first, then rate the pleasantness, earthy/moss odor intensity and overall odor intensity of the next four samples on a 0-10 linear scale. The inter-stimulus interval between the samples was two minutes to avoid adaptation.

The subject of experiment [2] is OR2W1 or OR1A1 olfactory receptor. As to the kind of experiment: 1-octen-3-ol olfactory receptor antagonist cell-based inhibitory dose-response assay. The conditions noted are these: Table 3.
From the text: Each cell line was screened with a volatile compound library for their inhibitory properties and potential 1-octen-3-ol smell inhibition.
Single concentration monitoring of the 1-octen-3-ol induced cell activity in the presence or absence of a test compound allowed for the identification of compounds with a putative suppression or inhibitory effect.

Chain of OR11A1 (Q9GZK7 whole entry): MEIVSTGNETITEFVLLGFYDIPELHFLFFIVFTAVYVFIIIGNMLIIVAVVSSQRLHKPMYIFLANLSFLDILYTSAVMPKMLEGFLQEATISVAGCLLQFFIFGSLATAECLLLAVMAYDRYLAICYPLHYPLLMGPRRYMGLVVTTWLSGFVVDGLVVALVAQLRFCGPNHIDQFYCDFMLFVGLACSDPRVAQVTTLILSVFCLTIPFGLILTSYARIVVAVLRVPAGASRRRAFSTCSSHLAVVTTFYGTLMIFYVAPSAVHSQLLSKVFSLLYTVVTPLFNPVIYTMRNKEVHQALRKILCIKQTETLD

With `C=CC(O)CCCCC` (centres unmarked) [1-octen-3-ol], the “activation of Olfr120” value with Olfr120 is “concentration-dependent and specific activation”. Also, in the experiment on Olfr398, the “activation of Olfr398” value is “concentration-dependent and specific activation”. Besides, in the experiment on Olfr93, the “activation of Olfr93” value was “concentration-dependent and specific activation”. Besides, the “activation of Olfr1364” value in the experiment on Olfr1364 is “concentration-dependent and specific activation”.
For the molecule `CC1CCCC2(C)CCCCC12O` [geonol, (4S,4aS,8aR)-4,8a-Dimethyl-1,2,3,4,5,6,7,-octahydronaphthalen-4a-ol], at OR11A1, the “activation of OR11A1” value was “concentration-dependent and specific activation”. For the same molecule, the “activation of Olfr96” value in the experiment on Olfr96 is “concentration-dependent and specific activation”. Moreover, the “activation of Olfr1322” value with Olfr1322 was “concentration-dependent and specific activation”. Moreover, in the experiment on Olfr339, the “activation of Olfr339” value was “concentration-dependent and specific activation”. In addition, in the experiment on Olfr1487, the “activation of Olfr1487” value is “concentration-dependent and specific activation”.
As to `CCCCCC/C=C/C=O` [nonylenic aldehyde], the % Inhibition – broadly, the relative decrease from the control value, in per cent – in experiment [1] came to 30%.
Regarding `CC(=O)OCCc1ccccc1` [phenyl ethyl acetate], in the experiment with human sensory panel, the “% Remaining in human sensory tests” value is on record as 47* %.
On the same count and under the same terms, the result for `OCCc1ccccc1` [phenylethylol] reads 58%.
On to isobutylquinoline, for which the “% Remaining in human sensory tests” value in the experiment with human sensory panel is on record as 52* %. Besides, the IC50 (in general, the point on the concentration scale where inhibition reaches its midpoint) in experiment [2] (1-octen-3-ol at single activating concentration (EC50), receptor (OR2W1 or OR1A1) not stated per compound) was over 600 µM. Besides, the “% Inhibition” value in [2] (normalized to baseline agonist activity, 1-octen-3-ol at EC50) is reported as 30.14%; in experiment [1] it was 45%.
With isopropyl quinoline, the “% Remaining in human sensory tests” value with human sensory panel is 110%.

(Values after patent US20250327793A1, “METHODS OF IDENTIFYING COMPOUNDS THAT MODULATE LAUNDRY MALODOR, MOLDY MALODOR, OR SWEAT MALODOR” (Firmenich SA, priority 2017, published 2025).)
